Source: patent US20240271184A1, “LOW PH COMPOSITION AND METHOD FOR S[…] ACIDS IN BIOLOGICAL SAMPLES” (priority 2021, published 2024)

How the values were obtained:
[1] = test system: nucleases in saliva samples; format: biochemical, human; conditions: for degradation of RNA in saliva samples obtained from nuclease-rich donors: pH 5.2; for rRNA doublet integrity and RIN in saliva: pH 4.71; for RNA stability and RIN as pH decreased: pH 5; for rRNA doublet and RIN of spiked RNA in saliva: T2
[2] = test system: nucleases in stool samples; format: biochemical, human; conditions: pH 4.7
[3] = test system: RNAse activity in saliva samples; assay: Nuclease assay (RNAseAlert) in saliva mixed 1:1 with formulation; format: biochemical, human; conditions: ATA 5 mM final; PAAc at pH 4.7; CDTA when ATA was present; saliva 1:1
[4] = Solubility of salts in the present composition; conditions: 4% SDS/100 mM CDTA/10 mM ATA/10 mg/mL PAAc

O[C@H](CS)[C@H](O)CS (racemic) [dithiothreitol]
degradation of RNA in saliva samples obtained from nuclease-rich donors [1]: Degradation of RNA

O=C(O)c1cc(SSc2ccc([N+](=O)[O-])c(C(=O)O)c2)ccc1[N+](=O)[O-] [5,5-dithio-bis-(2-nitrobenzoic acid)]
degradation of RNA in saliva samples obtained from nuclease-rich donors [1]: Degradation of RNA

O=C(O)c1cc2cccc([N+](=O)[O-])c2[nH]1 [7-nitroindole-2-carboxylic acid]
degradation of RNA in saliva samples obtained from nuclease-rich donors [1]: Degradation of RNA

O=C(O)CN(CC(=O)O)C1CCCCC1N(CC(=O)O)CC(=O)O (centres unmarked) [CDTA, 1,2-cyclohexanediaminetetraacetic acid]
RIN and rRNA doublet of spiked RNA in stool [2]: RIN values increased and rRNA doublet remained intact | effect on RNAse activity of addition to guanidinium salt-based compositions [3]: minimal effect on RNAse activity

CCCCCCCCCCCCCCCC[N+](C)(C)C.[Br-] [CTAB, Cetyltrimethylammonium bromide]
rRNA doublet integrity and RIN in saliva [1]: doublet was degraded and the RIN was significantly reduced

O=C(O[C@@H]1Cc2c(O)cc(O)cc2O[C@@H]1c1cc(O)c(O)c(O)c1)c1cc(O)c(O)c(O)c1 [EGCG, epigallocatechin gallate]
degradation of RNA in saliva samples obtained from nuclease-rich donors [1]: did not prevent degradation of RNA

N#CS.N=C(N)N [GTC, guanidinium thiocyanate]
relative effectiveness for stabilizing RNA at low pH [1]: more effective than GuHCl | RNA stability and RIN as pH decreased [1]: surprising improvement in RNA stability and corresponding increase in RIN

Cl.N=C(N)N [GuHCl, guanidinium hydrochloride]
RNA stability and RIN as pH decreased [1]: surprising improvement in RNA stability and corresponding increase in RIN

[Cl-].[K+] [KCl]
solubility in the present composition [4]: solubility issues

O=S(=O)([O-])[O-].[Li+].[Li+] [Li2SO4, lithium sulphate]
rRNA doublet and RIN of spiked RNA in saliva [1]: rRNA doublet was intact and the RIN was high

[Cl-].[Li+] [LiCl, lithium chloride]
rRNA doublet and RIN of spiked RNA in saliva [1]: rRNA doublet was intact and the RIN was high

[Cl-].[Na+] [NaCl, sodium chloride]
rRNA doublet and RIN of spiked RNA in saliva [1]: rRNA doublet was intact and the RIN was high

CCCCCCCCCCCCOS(=O)(=O)[O-].[Na+] [SDS, sodium dodecyl sulfate]
rRNA doublet integrity and RIN in saliva [1]: able to preserve the integrity of rRNA

N[C@H]1C(O)O[C@H](COP(=O)(O)O)[C@@H](O)[C@@H]1O (some centres unmarked) [glucosamine 6-phosphate]
degradation of RNA in saliva samples obtained from nuclease-rich donors [1]: Degradation of RNA

O=S(=O)(O)c1cc(O)c2c(O)c(/N=N/c3cccc4ccccc34)c(S(=O)(=O)O)cc2c1 [pontacyl violet 6R]
degradation of RNA in saliva samples obtained from nuclease-rich donors [1]: Degradation of RNA

Cc1ccc(S(=O)(=O)O)cc1.[Na] [sodium p-toluenesulfonate]
degradation of RNA in saliva samples obtained from nuclease-rich donors [1]: Degradation of RNA

O=C(O)CCP(CCC(=O)O)CCC(=O)O [tris(2-carboxyethyl)phosphine]
degradation of RNA in saliva samples obtained from nuclease-rich donors [1]: Degradation of RNA

OCCS [β-2-mercaptoethanol]
degradation of RNA in saliva samples obtained from nuclease-rich donors [1]: Degradation of RNA

ribonucleoside vanadyl complexes
degradation of RNA in saliva samples obtained from nuclease-rich donors [1]: Degradation of RNA

sodium lauroyl sarcosinate [Sarkosyl]
rRNA doublet integrity and RIN in saliva [1]: doublet was degraded and the RIN was significantly reduced

B1: recombinant human placental RNAse inhibitor (protein, UniProt P13489 2-461, looked up)
Ribonuclease inhibitor: SLDIQSLDIQCEELSDARWAELLPLLQQCQVVRLDDCGLTEARCKDISSALRVNPALAELNLRSNELGDVGVHCVLQGLQTPSCKIQKLSLQNCCLTGAGCGVLSSTLRTLPTLQELHLSDNLLGDAGLQLLCEGLLDPQCRLEKLQLEYCSLSAASCEPLASVLRAKPDFKELTVSNNDINEAGVRVLCQGLKDSPCQLEALKLESCGVTSDNCRDLCGIVASKASLRELALGSNKLGDVGMAELCPGLLHPSSRLRTLWIWECGITAKGCGDLCRVLRAKESLKELSLAGNELGDEGARLLCETLLEPGCQLESLWVKSCSFTAACCSHFSSVLAQNRFLLELQISNNRLEDAGVRELCQGLGQPGSVLRVLWLADCDVSDSSCSSLAATLLANHSLRELDLSNNCLGDAGILQLVESVRQPGCLLEQLVLYDIYWSEEMEDRLQALEKDKPSLRVIS
degradation of RNA in saliva samples obtained from nuclease-rich donors [1]: Degradation of RNA
